Measurements as given in patent US8591908B2, “Immunogen for preparation of therapeutic vaccines or drugs for treatment of hepatitis B and the producing method and use thereof” (Institute of Immunology, PLA, priority 2002, dated 2013).
Values joined by “and” are separate entries in the source; they are usually repeats but may differ in a detail not shown here. Equal values may be shown once. Ends that are not written are not given here. * marks the point of attachment. Palmitoyl = CCCCCCCCCCCCCCCC(=O)*

Columns and labels:
[1] = system: HBV-DNA transgenic mice; assay: HBV transgenic mice: cytokines of spleen lymphocytes, ELISA (Th1/Th2); assay type: in vivo; conditions: 10, 100, 1000 U/mouse s.c., day 30; spleen lymphocytes restimulated with 10 ng/ml for 3 days
Experimental: (§1) The levels of cytokines such as IFN-γ, IL-4, etc. in supernatant were measured by the ELISA method, and the activity of the test drug (CH3(CH2)14COKSSQYIKANSKFIGITEAAASIVSPFIPLLGGGDPRVRGLYFPA) (SEQ ID NO:5) for inducing the differentiation of T cells into Th1/Th2 type was analyzed. […] The expression frequency of IFN-γ secreting cells in peripheral blood lymphocytes was measured by the ELI-SPOT method in said supernatant. […] On the 10th, 20th and 30th day after the end of the three immunizations, bloods were removed, serum isolated, and the contents of HBsAg and HBV-DNA in the serum were separately measured by the ELISA method and quantitative PCR method.
Then supernatants were collected and the secretion levels of cytokines such as TNF-α, IFN-γ, IL-4, etc. in supernatants were measured by ELISA, and the activity of the test drug for inducing the conversion of Th1/Th2 type from T cells in subjects was analyzed.

[2] = system: HBV-DNA transgenic mice; assay: HBV transgenic mice: IFN-γ secreting cells, ELI-SPOT; assay type: in vivo; conditions: 30th day after end of immunization
Experimental: as §1
The expression frequency of IFN-γ secreting cells in peripheral blood lymphocytes was measured by the ELI-SPOT method.

[3] = system: enzyme-labeled antibody; assay: Potency/specific activity of stock solution or semifinished product, enzyme-linked plate; assay type: binding
Excerpt: Chromatography column AP5 20/275 POROS 50 R1 was used in the batch production. After peptide-resin was cleaved and preliminarily purified, the collected εPA44 sample was divided into 7 parts for high purification, and the effects and reproducibility for batch purification of εPA44 stock solution were furthered studied. […] The collected elution peak fractions of εPA44 were pooled and mixed homogenously, aliquots were removed for analysis. If the sample met the set standards, it was used as the stock solution and was stored at −20° C. until use. The output, yield and specific activity of the product were calculated based on the measured data.
The semifinished product to be tested was diluted to a concentration within the measurable range of the potency determination. An enzyme-linked plate( ? ) was coated, blocked, bound by enzyme-labeled antibody, and developed. The absorbance at 450 nm (A450 nm) was detected by an enzyme-labeling device, and compared to the reference of the product. The potency of εPA44 in the extract of the sample was determined, and the specific activity of the semifinished product ( ? ) was calculated.
The reference of the product was 10-fold diluted with 50% ethanol, and then was two-fold serially diluted. 100 μl dilutions were separately added to the wells on the 96-well enzyme-linket immunosorbent assay plate, each well was repeated in triplicate. Coating was carried out in refrigerator at 4° C. for 20-24 hours. The stock solution of εPA44 was diluted and coated similarly to the reference. 100 μl of 50% ethanol was added to negative control wells. After the coating was completed, 200 μl 1% calf serum was added to each well, and blocked in refrigerator at 4° C. for 2 hours. The enzyme-linket immunosorbent assay plate was dried in air, 80 μl enzyme-labeled antibody was added to each well and incubated at 37° C. for 40 minutes. The plate was washed with wash solution for 4 times and dried in air, then 50 μl of substrate solution A and 50 μl of substrate solution B were added to each well and developed at 37° C. for 15 minutes under protection from light. Then 50 μl of stop solution was added to each well. A450 nm values were detected on 550 type enzyme-linket immunosorbent assay detector. The median dilution times of the reference and the samples were calculated by program or linear regression method based on the median effect value of the reference of εPA44 (median maximum absorbance), and the potency of the test sample and the specific activity of the product were calculated according to the following formulas.

[4] = Isoelectric point, ampholyte pH gradient isoelectric focusing; assay type: physicochemical; conditions: 8N urea, TritonX-114
Experimental: Supported ampholyte pH gradient isoelectric focusing was employed. Pretreatment: 8N urea and 2% TritonX-114. Urea at the corresponding concentration and 0.5% TritonX-114 were also added to polyacrylamide gel. Conventional Coomassie brilliant blue was used for dyeing.

K(Palmitoyl)SSQYIKANSKFIGITEAAAFLPSDFFPSVGGGDPRVRGLYFPA-OH [SEQ ID NO:1, CH3(CH2)14COKSSQYIKANSKFIGITEAAAFLPSDFFPSVGGGDPRVRGLYFPA]
IL-4 secretion [1]: no obvious dose-effect dependence relation | secretion of IFN-γ [1]: stronger | expression frequency of IFN-γ secreting cells in peripheral blood lymphocytes ([2]; 10-1000 U/mouse): increased with the increase of the immunization dose | highest expression frequency of IFN-γ secreting cells ([2]; IFN-α2b at 15000 U/mouse): 3660 IFN-γ secreting cells/10^6 PBMC | Specific activity ([3]; semifinished product): 13985.31 U/mg | potency of each vial ([3]; semifinished product): 4085.53 U | Specific activity ([3]; stock solution after reversed phase chromatography, batches 1-3 and x ± Sx, listed as εPA44): 10265.08 U/mg and 11689.76 ± 1503.57 U/mg and 13261.42 U/mg and 11542.77 U/mg | isoelectric point [4]: 7.2 pH
